Measured values taken from ChEMBL document CHEMBL1133484 (Bioorg Med Chem Lett, 2000).
Starred links: 1 amine or outer side, 2 acyl side, 3 side chain; linkers in the order of their positions; H or OH if unused. Non-standard residues stand in square brackets, D forms with d. Residues, ends and D or L forms follow the SMILES beside them. *: point of attachment. X2 = O=C([C@@H]1C[C@@H](CCCc2ccccc2)CN1[*:1])[*:2]; X3 = O=C([C@@H]1C[C@@H](CCc2ccccc2)CN1[*:1])[*:2]; Pro(4R-Bn) = O=C(O)[C@@H]1C[C@@H](Cc2ccccc2)CN1; CH2(1-naphthyl) = c1ccc2c(C*)cccc2c1; mXylylene = c1cc(C[*:1])cc(C[*:2])c1; oXylylene = c1ccc(C[*:2])c(C[*:1])c1; Glutaryl = O=C(CCCC(=O)[*:2])[*:1]; Hyp = O=C(O)[C@@H]1C[C@@H](O)CN1; Chg = N[C@H](C(=O)O)C1CCCCC1; Nva = CCC[C@H](N)C(=O)O; X1 = c1ccc2cc(C*)ccc2c1; Ac3c = NC1(C(=O)O)CC1; Meb = Cc1ccc(C*)cc1; CF3 = FC(F)(F)*

How the values were obtained:
NS3 [1] = target: T1, NS3 (Hepatitis C virus, UniProt A3EZJ3); experiment: Inhibitory activity against NS3 protease complexed with NS4A cofactor peptide (NS3-4A pep); design: species or system Hepacivirus hominis
Cathepsin B = Cathepsin B (Homo sapiens, UniProt P07858); experiment: Compound was evaluated for its inhibitory activity against cathepsin B
Neutrophil elastase = target: T2, Neutrophil elastase (Homo sapiens, UniProt P08246); experiment: Compound was evaluated for its inhibitory activity against human leukocyte elastase (HLE)
T2 sequence (P08246 whole entry): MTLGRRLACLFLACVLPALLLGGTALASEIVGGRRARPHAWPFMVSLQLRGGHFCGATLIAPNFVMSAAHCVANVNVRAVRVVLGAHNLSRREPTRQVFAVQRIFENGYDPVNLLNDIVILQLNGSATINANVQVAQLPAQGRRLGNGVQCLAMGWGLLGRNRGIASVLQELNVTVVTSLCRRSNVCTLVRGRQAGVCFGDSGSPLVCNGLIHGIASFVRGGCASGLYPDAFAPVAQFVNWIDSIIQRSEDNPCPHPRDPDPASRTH

NS3 [2] = target: T1, NS3; experiment: Compound was evaluated for its binding affinity against NS3 protease complexed with NS4A cofactor peptide (NS3-4A pep); design: species or system Hepacivirus hominis
Chymotrypsinogen B = Chymotrypsinogen B (Homo sapiens, UniProt P17538); experiment: Compound was evaluated for its inhibitory activity against Chymotrypsinogen
Sequence of Chymotrypsinogen B (P17538 34-164 limits assumed, other chains not shown): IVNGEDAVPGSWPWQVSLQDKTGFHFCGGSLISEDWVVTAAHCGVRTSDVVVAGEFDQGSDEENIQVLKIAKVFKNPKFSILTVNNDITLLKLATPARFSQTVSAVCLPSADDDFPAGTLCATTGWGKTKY
Sequence of Chymotrypsinogen B (P17538 167-263 limits assumed, other chains not shown): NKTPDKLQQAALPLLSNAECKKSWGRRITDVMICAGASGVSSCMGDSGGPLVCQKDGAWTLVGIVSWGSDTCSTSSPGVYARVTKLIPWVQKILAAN

T1 sequence (A3EZJ3 whole entry): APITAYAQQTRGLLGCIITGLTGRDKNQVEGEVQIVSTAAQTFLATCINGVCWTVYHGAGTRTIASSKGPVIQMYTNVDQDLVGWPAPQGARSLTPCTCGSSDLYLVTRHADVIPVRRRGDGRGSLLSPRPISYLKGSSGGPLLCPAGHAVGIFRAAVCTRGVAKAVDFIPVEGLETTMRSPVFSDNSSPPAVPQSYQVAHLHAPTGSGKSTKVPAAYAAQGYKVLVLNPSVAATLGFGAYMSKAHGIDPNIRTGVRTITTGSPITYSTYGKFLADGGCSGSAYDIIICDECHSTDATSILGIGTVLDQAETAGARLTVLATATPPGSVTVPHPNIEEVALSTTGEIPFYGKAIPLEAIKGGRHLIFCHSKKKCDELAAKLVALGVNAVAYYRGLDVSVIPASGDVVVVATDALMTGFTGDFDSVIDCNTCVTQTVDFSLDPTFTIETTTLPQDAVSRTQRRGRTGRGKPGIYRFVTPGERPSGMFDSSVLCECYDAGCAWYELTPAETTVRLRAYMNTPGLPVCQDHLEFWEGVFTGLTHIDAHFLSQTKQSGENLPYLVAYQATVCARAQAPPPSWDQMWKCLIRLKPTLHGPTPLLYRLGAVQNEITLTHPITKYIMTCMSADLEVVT

Row | IC50 (NS3 [1]) [µM] | Structure (SMILES) | also measured
1 | 54 | CC[C@H](C)[C@H](NC(=O)[C@H](CC(=O)O)NC(=O)[C@H](CC(=O)O)NC(C)=O)C(=O)N[C@H](C(=O)N1CCC[C@H]1C(=O)NC1(C(=O)O)CC1)C(C)C (Ac-DDIVP[Ac3c]-OH) | –
2 | 150 | CCC[C@H](NC(=O)[C@@H]1CCCN1C(=O)[C@@H](NC(=O)[C@@H](NC(=O)[C@H](CC(=O)O)NC(=O)[C@H](CC(=O)O)NC(C)=O)[C@@H](C)CC)C(C)C)C(=O)O (Ac-DDIVP[Nva]-OH) | –
3 | 0.39 | CCC[C@H](NC(=O)[C@@H]1C[C@@H](OCc2cccc3ccccc23)CN1C(=O)[C@@H](NC(=O)[C@@H](NC(=O)[C@H](CC(=O)O)NC(=O)[C@H](CC(=O)O)NC(C)=O)[C@@H](C)CC)C(C)C)C(=O)O (Ac-DDIV[Hyp](CH2(1-naphthyl))[Nva]-OH) | –
4 | 2.5 | CCC[C@H](NC(=O)[C@@H]1C[C@@H](OCc2ccc(C)cc2)CN1C(=O)[C@@H](NC(=O)[C@@H](NC(=O)[C@H](CC(=O)O)NC(=O)[C@H](CC(=O)O)NC(C)=O)[C@@H](C)CC)C(C)C)C(=O)O (Ac-DDIV[Hyp](Meb)[Nva]-OH) | –
5 | 0.71 | CCC[C@H](NC(=O)[C@@H]1C[C@@H](OCc2ccc3ccccc3c2)CN1C(=O)[C@@H](NC(=O)[C@@H](NC(=O)[C@H](CC(=O)O)NC(=O)[C@H](CC(=O)O)NC(C)=O)[C@@H](C)CC)C(C)C)C(=O)O (Ac-DDIV[Hyp](X1)[Nva]-OH) | –
6 | 3.5 | CCC[C@H](NC(=O)[C@@H]1C[C@@H](OCc2cccc(C)c2)CN1C(=O)[C@@H](NC(=O)[C@@H](NC(=O)[C@H](CC(=O)O)NC(=O)[C@H](CC(=O)O)NC(C)=O)[C@@H](C)CC)C(C)C)C(=O)O (Ac-DDIV[Hyp](mXylylene)[Nva]-OH) | –
7 | 6.8 | CCC[C@H](NC(=O)[C@@H]1C[C@@H](OCc2ccccc2C)CN1C(=O)[C@@H](NC(=O)[C@@H](NC(=O)[C@H](CC(=O)O)NC(=O)[C@H](CC(=O)O)NC(C)=O)[C@@H](C)CC)C(C)C)C(=O)O (Ac-DDIV[Hyp](oXylylene)[Nva]-OH) | –
8 | 93 | CCC[C@H](NC(=O)[C@@H]1C[C@@H](O)CN1C(=O)[C@@H](NC(=O)[C@@H](NC(=O)[C@H](CC(=O)O)NC(=O)[C@H](CC(=O)O)NC(C)=O)[C@@H](C)CC)C(C)C)C(=O)O (Ac-DDIV[Hyp][Nva]-OH) | –
9 | 60 | CCC[C@H](NC(=O)[C@@H]1C[C@@H](Cc2ccccc2)CN1C(=O)[C@@H](NC(=O)[C@@H](NC(=O)[C@H](CC(=O)O)NC(=O)[C@H](CC(=O)O)NC(C)=O)[C@@H](C)CC)C(C)C)C(=O)O (Ac-DDIV[Pro(4R-Bn)][Nva]-OH) | –
10 | 3.3 | CCC[C@H](NC(=O)[C@@H]1C[C@@H](CCCc2ccccc2)CN1C(=O)[C@@H](NC(=O)[C@@H](NC(=O)[C@H](CC(=O)O)NC(=O)[C@H](CC(=O)O)NC(C)=O)[C@@H](C)CC)C(C)C)C(=O)O (Ac-DDIV[X2][Nva]-OH) | –
11 | 10 | CCC[C@H](NC(=O)[C@@H]1C[C@@H](CCc2ccccc2)CN1C(=O)[C@@H](NC(=O)[C@@H](NC(=O)[C@H](CC(=O)O)NC(=O)[C@H](CC(=O)O)NC(C)=O)[C@@H](C)CC)C(C)C)C(=O)O (Ac-DDIV[X3][Nva]-OH) | –
12 | 22 | CCC[C@H](NC(=O)[C@@H]1CCCN1C(=O)[C@@H](NC(=O)[C@@H](NC(=O)[C@@H](CC(=O)O)NC(=O)[C@H](CC(=O)O)NC(C)=O)[C@@H](C)CC)C(C)C)C(=O)C(F)(F)F (Ac-D[dD]IVP[Nva]-CF3) | –
13 | 17 | CCC[C@H](NC(=O)[C@@H]1CCCN1C(=O)[C@@H](NC(=O)[C@@H](NC(=O)[C@@H](CC(=O)O)NC(=O)[C@H](CC(=O)O)NC(C)=O)[C@@H](C)CC)C(C)C)C(=O)O (Ac-D[dD]IVP[Nva]-OH) | –
14 | 7.5 | CCC[C@H](NC(=O)[C@@H]1CCCN1C(=O)[C@@H](NC(=O)[C@@H](NC(=O)[C@@H](CCC(=O)O)NC(=O)[C@H](CC(=O)O)NC(C)=O)[C@@H](C)CC)C(C)C)C(=O)O (Ac-D[dE]IVP[Nva]-OH) | –
15 | 0.013 | CC(=O)N[C@@H](CC(=O)O)C(=O)N[C@H](CCC(=O)O)C(=O)N[C@H](C(=O)N[C@H](C(=O)N1C[C@H](OCc2cccc3ccccc23)C[C@H]1C(=O)NC1(C(=O)O)CC1)C(C)C)C1CCCCC1 (Ac-D[dE][Chg]V[Hyp](CH2(1-naphthyl))[Ac3c]-OH) | –
16 | 0.027 | CCC[C@H](NC(=O)[C@@H]1C[C@@H](OCc2ccc3ccccc3c2)CN1C(=O)[C@@H](NC(=O)[C@@H](NC(=O)[C@@H](CCC(=O)O)NC(=O)[C@H](CC(=O)O)NC(C)=O)C1CCCCC1)C(C)C)C(=O)O (Ac-D[dE][Chg]V[Hyp](X1)[Nva]-OH) | IC50 (Cathepsin B): > 300 µM; IC50 (Neutrophil elastase): > 300 µM; Ki (NS3 [2]): 0.003 µM; IC50 (Chymotrypsinogen B): > 300 µM
17 | 3.5 | CC(=O)N[C@H](C(=O)N[C@H](C(=O)N1C[C@H](OCc2cccc3ccccc23)C[C@H]1C(=O)NC1(C(=O)O)CC1)C(C)C)C1CCCCC1 (Ac-[Chg]V[Hyp](CH2(1-naphthyl))[Ac3c]-OH) | IC50 (Neutrophil elastase): > 600 µM
18 | 0.9 | CC(C)[C@H](NC(=O)[C@@H](NC(=O)CCCC(=O)O)C1CCCCC1)C(=O)N1C[C@H](OCc2cccc3ccccc23)C[C@H]1C(=O)NC1(C(=O)O)CC1 (Glutaryl-[Chg]V[Hyp](CH2(1-naphthyl))[Ac3c]-OH) | –
